Laboratory results from patent publication US4694090A, “Chroman compounds useful as analgerics and antioxidants” (Kuraray Co., Ltd., priority 1984, dated 1987).
Where a name gives a salt, the structure may show the parent alone.

Assays:
[1] = AOM (Antioxygen Method) test in ethyl linoleate, time till POV 100 meq/kg; settings: 0.020 g per 100 g ethyl linoleate, aeration 2.33 cc/sec., 97.8° C.
Procedure: To each 100 g of ethyl linoleate was added 0.020 g of one of the test compounds indicated in Table 7 to prepare a test solution. A 20 ml portion of each test solution was exposed to the accelerated conditions of aeration of 2.33 cc/sec. at 97.8° C. in an AOM (Antioxygen Method) test and the time period till the POV (peroxide value) reached 100 meq/kg was determined.

[2] = Inhibition of linoleic acid oxidation (ferric thiocyanate absorbance at 500 mμ); settings: 0.2% by weight on linoleic acid basis, pH 9, 70° C.
Procedure: Inhibition of linoleic acid oxidation
A test solution (10 ml) was prepared by adding each test compound, in an amount of 0.2% by weight on the linoleic acid basis, to a borate buffer (pH 9) containing 10^-2 M sodium linoleate. A 0.2 ml portion of the test solution was heated at 70° C. for a specified period of time. After heating, 4.7 ml of 75% ethanol and 0.1 ml of 30% ammonium thiocyanate were added to said test solution, and the mixture was stirred well. Then, 0.1 ml of a ferrous chloride solution [the supernatant obtained by adding an aqueous ferrous sulfate solution (0.6 g/50 ml) and 10 ml of concentrated hydrochloric acid to an aqueous barium chloride solution (0.5 g/50 ml), followed by adequate stirring and standing for a while] was added to said mixture. Exactly 3 minutes later, the resulting solution was measured for the absorbance at 500 mμ. In this way, the trivalent iron formed by the oxidative action of sodium linoleate peroxides was assayed and, based on the assay data, the test compounds were compared with respect to antioxidant activity [cf. Shokuhin Kogaku Jikkensho (Experiments in Food Engineering), vol. I, edited by the Department of Food Engineering, Faculty of Agriculture, Kyoto University, pages 634-635]. The greater the absorbance of the test solution after heating is, the greater the amount of sodium linoleate peroxides formed is.

[3] = Analgesic activity, acetic acid writhing test (mice); type: in vivo, Male ddY strain mice; settings: 100 mg/kg, s.c., male ddY mice, groups of ten
[4] = Japanese Laid-Open Patent Publication No. 94382/1980; cited from earlier work
[5] = Analgesic activity, writhing test (rat); type: in vivo; settings: i.p., 100 mg/kg
Procedure: (§1) β-(2,3-Dihydro-6-hydroxy-2,5,7,8-tetramethyl-2H-benzopyranyl)alanine hydrochloride was evaluated for analgesic activity in the writhing test [cf. Koster et al., Fed. Proc., 18, 412 (1959)], local anesthetic activity in the tail pinch test [cf. Bianchi, C., Brit. J. Pharmacol., 11, 104 (1956)] and bronchodilator activity in lung perfusion [cf. Luduena, F. P., Arch. Int. Pharmacodyn., 111, 392 (1957)].

[6] = tested on: isoprenaline-induced bronchodilation; test: Bronchodilator activity, lung perfusion; settings: Table 8: guinea pig, in vitro, 300 μg
Procedure: as §1
>40% reduction in Inhibited

[7] = Local anesthetic activity, tail pinch test; type: in vivo, Mouse; settings: s.c., 3%
Procedure: as §1

[8] = Acute toxicity (oral administration); settings: mouse, in vivo, male mice
Source text: Among the chroman compounds (I), the chroman compounds (I-2) show excellent analgesic activity. In addition, these compounds have low toxicity. […] So, the chroman compounds (I-2) can be used as an analgesic.

Structure (SMILES) | Time till POV = 100 meq/kg [1] [h] | Absorbance, solution after 1 hr. of heating [2] | Absorbance, solution after 2 hrs. of heating [2] | Absorbance, solution after 3 hrs. of heating [2] | also measured
Cc1cc(O)cc2c1OC(C)(CC(O)C(=O)O)CC2 (centres unmarked) | 2.3 | – | – | – | –
CCCCCCCCCCCCCCCCCCOC(=O)C(N)CC1(C)CCc2c(C)c(O)c(C)c(C)c2O1 (centres unmarked) | – | 0.03 | 0.04 | 0.07 | –
CCOC(=O)C(O)CC1(C)CCc2c(C)c(O)c(C)c(C)c2O1 (centres unmarked) | 2.3 | – | – | – | –
COC(=O)C(O)CCC1(C)CCc2c(C)c(O)c(C)c(C)c2O1 (centres unmarked) | 2.1 | – | – | – | –
Cc1c(C)c2c(c(C)c1O)CCC(C)(CN)O2 (centres unmarked) [Example 19, (2,3-dihydro-6-hydroxy-2,5,7,8-tetramethyl-2H-benzopyranyl)methylamine hydrochloride] | – | – | – | – | inhibition [3]: 65.6%
CCOC(=O)C(N)CC1(C)CCc2c(C)c(O)c(C)c(C)c2O1 (centres unmarked) | – | 0.02 | 0.03 | 0.05 | –
Cc1c(C)c2c(c(C)c1O)CCC(C)(C(O)C(=O)O)O2 (centres unmarked) | 2.3 | – | – | – | –
Cc1c(C)c2c(c(C)c1O)CCC(C)(CC(N)C(=O)O)O2 (centres unmarked) [drawing 71] | – | 0.02 | 0.03 | 0.03 | –
Cc1c2c(c3ccccc3c1O)OC(C)(CC(O)C(=O)O)CC2 (centres unmarked) | 1.9 | – | – | – | –
Cc1c(C)c2c(c(C)c1O)CCC(C)(CC(N)CO)O2 (centres unmarked) [Example 17, 2-amino-3-[2-(2,3-dihydro-6-hydroxy-2,5,7,8-tetramethyl-2H-benzopyranyl)]-1-propanol] | – | – | – | – | inhibition [3]: 83.7%
COc1c(O)c(C)c2c(c1OC)OC(C)(CC(O)C(=O)O)CC2 (centres unmarked) | 2.2 | – | – | – | –
CCOC(=O)C(O)C1(C)CCc2c(C)c(O)c(C)c(C)c2O1 (centres unmarked) | 2.1 | – | – | – | –
COc1c(O)c(C)c2c(c1OC)OC(C)(CC(N)C(=O)O)CC2 (centres unmarked) | – | 0.02 | 0.03 | 0.05 | –
Cc1c(C)c2c(c(C)c1O)CCC(C)(C(N)C(=O)O)O2 (centres unmarked) | – | 0.02 | 0.03 | 0.03 | –
Cc1c(C)c2c(c(C)c1O)CCC(C)(CCCC(C)CCCC(C)CCCC(C)C)O2 (stereo not drawn) [α-Tocopherol, reference compound] | 1.4 | 0.07 | 0.19 | 0.30 | –
Cc1cc2c(c(C)c1O)CCC(C)(CC(N)C(=O)O)O2 (centres unmarked) | – | 0.02 | 0.03 | 0.04 | –

Structure (SMILES) | Time till POV = 100 meq/kg [1] [h] | Absorbance, solution after 1 hr. of heating [2] | Absorbance, solution after 2 hrs. of heating [2] | Absorbance, solution after 3 hrs. of heating [2] | also measured
Cc1cc(O)cc2c1OC(C)(CC(N)C(=O)O)CC2 (centres unmarked) | – | 0.02 | 0.03 | 0.03 | –
Cc1c(C)c2c(c(C)c1OC(C)(C)C(=O)OCCN(C)C)CCC(C)(C)O2 [2-(N,N-dimethylamino)ethyl 2-(2,2,5,7,8-pentamethyl-6-chromanyloxy)isobutyrate] | – | – | – | – | cholesterol lowering activity [4]: have cholesterol lowering activity
O=C1OC(C(O)CO)C(O)=C1O (centres unmarked) [Sodium erithorbate, reference compound] | – | 0.11 | 0.17 | 0.18 | –
Cc1c(C)c2c(c(C)c1O)CCC(C)(CC(N)C(=O)O)O2 (stereo not drawn) [Example 1, β-(2,3-dihydro-6-hydroxy-2,5,7,8-tetramethyl-2H-benzopyranyl)alanine hydrochloride] | – | – | – | – | Activity observed (writhing score, criterion <50% of control group) ([5]; Rat, test 0.75 hr post-dose): 16%; inhibition of writhing ([5]; Table 8: rat): 84%; isoprenaline-induced bronchodilation (in words) [6]: An inhibition of isoprenaline-induced bronchodilation is also observed; Activity observed (animals protected) ([7]; Mouse, tested at 15 min post-dose, criterion >3/5 protected): 5/5; local anesthetic activity (in words) ([7]; Table 8: mouse): demonstrated a local anesthetic activity; inhibition [3]: 96.1%; LD50 [8]: 2620 mg/kg
Cc1c(C)c2c(c(C)c1O)CCC(C)(CCC(O)C(=O)O)O2 (centres unmarked) | 2.0 | – | – | – | –
Cc1c(C)c2c(c(C)c1OC(C)(C)COC(=O)c1cccnc1)CCC(C)(C)O2 [2-(2,2,5,7,8-pentamethyl-6-chromanyloxy)isobutyl nicotinate] | – | – | – | – | cholesterol lowering activity [4]: have cholesterol lowering activity
CC1(CC(O)C(=O)O)CCc2cc(O)ccc2O1 (centres unmarked) | 2.2 | – | – | – | –
CC(=O)Oc1ccccc1C(=O)O [Aspirin, reference compound] | – | – | – | – | inhibition [3]: 40.8%
Cc1c(C)c2c(c(C)c1O)CCC(C)(CC(N)C(=O)O)O2 (centres unmarked) [drawing 62] | – | 0.02 | 0.03 | 0.03 | –
Cc1c(C)c2c(c(C)c1O)CCC(C)(CCC(N)C(=O)O)O2 (centres unmarked) | – | 0.02 | 0.03 | 0.04 | –
CC1(CC(N)C(=O)O)CCc2cc(O)ccc2O1 (centres unmarked) | – | 0.02 | 0.03 | 0.03 | –
Cc1c(C)c2c(c(C)c1O)CCC(C)(CC(O)C(=O)O)O2 (centres unmarked) | 2.4 | – | – | – | –
O=C1O[C@H]([C@@H](O)CO)C(O)=C1O [Ascorbic acid, reference compound] | – | 0.10 | 0.21 | 0.30 | –
Cc1c(C)c2c(c(C)c1O)CCC(C)(CC(N)C(=O)O)O2 (centres unmarked) [drawing 70] | – | 0.02 | 0.03 | 0.04 | –
Cc1c2c(c3ccccc3c1O)OC(C)(CC(N)C(=O)O)CC2 (centres unmarked) | – | 0.02 | 0.03 | 0.05 | –
